In patent US7253171B2 (Laboratorios Almirall, S.A., priority 2001, dated 2007):

These compounds were tested against T1, α4β1 integrin (Homo sapiens, UniProt P05556+P13612) (assay: U-937 cell adhesion to human VCAM-1 (α4β1 binding assay)). Conditions: U-937 cells, immobilized human VCAM-1; read-out: IC50 values in the α4β1 assays.
T1 construct: endogenous in cells; host or cells: U-937 cells
Assay type: cell-based
Protocol: U-937 Cell Adhesion to Human VCAM-1 (α4β1 Binding Assay)
Recombinant human soluble VCAM-1 (R&D Systems Ltd., UK) at 2 μg/ml in PBS was immobilized overnight onto microtiter plates. Unbound VCAM-1 was washed away and VCAM-1 coated plates were blocked with bovine serum albumin (BSA) 2,5% in PBS for 2 h at room temperature. U-937 cells were labelled with 5-carboxyfluorescein diacetate (5-CFDA) in order to detect bound cells to the wells. Test compounds were added to the wells followed by U-937 cells and the adhesion assay was performed for 1 h at 37° C. Following incubation, the wells were emptied and washed. Inhibition of binding was measured by the quantity of fluorescence bound to the plate for each of the various concentrations of test compound, as well as for controls containing no test compound, with a Cytofluor 2300 fluorescence measurement system.

T1 sequence (P05556 21-798, one chain of several): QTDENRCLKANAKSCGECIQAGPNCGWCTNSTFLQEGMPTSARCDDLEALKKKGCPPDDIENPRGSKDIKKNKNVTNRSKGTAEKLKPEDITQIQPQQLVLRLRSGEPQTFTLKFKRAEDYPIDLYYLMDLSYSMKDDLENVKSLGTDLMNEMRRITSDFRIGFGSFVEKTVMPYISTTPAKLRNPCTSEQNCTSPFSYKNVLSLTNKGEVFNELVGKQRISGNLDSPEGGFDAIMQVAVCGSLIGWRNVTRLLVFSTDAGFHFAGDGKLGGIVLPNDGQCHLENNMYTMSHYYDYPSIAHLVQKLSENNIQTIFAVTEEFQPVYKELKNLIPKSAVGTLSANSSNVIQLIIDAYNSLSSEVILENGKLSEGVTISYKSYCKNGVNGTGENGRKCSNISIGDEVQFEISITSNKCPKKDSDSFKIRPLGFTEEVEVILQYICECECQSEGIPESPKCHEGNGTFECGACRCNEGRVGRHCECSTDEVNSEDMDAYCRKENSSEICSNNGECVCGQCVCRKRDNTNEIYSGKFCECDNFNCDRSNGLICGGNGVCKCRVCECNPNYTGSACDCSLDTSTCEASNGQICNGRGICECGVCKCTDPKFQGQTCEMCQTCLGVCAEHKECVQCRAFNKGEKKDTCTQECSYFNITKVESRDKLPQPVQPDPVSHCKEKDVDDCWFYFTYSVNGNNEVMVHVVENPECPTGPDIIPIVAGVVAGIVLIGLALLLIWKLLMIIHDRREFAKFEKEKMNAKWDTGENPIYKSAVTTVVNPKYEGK

SMILES | IC50
CN(C1CCCCC1)S(=O)(=O)c1ccccc1NC(=O)N[C@@H](Cc1ccc(NC(=O)c2c(Cl)cccc2Cl)cc1)C(=O)O [Example 40] | < 0.1 µM
CN1CCN(S(=O)(=O)c2ccccc2NC(=O)N[C@@H](Cc2ccc(NC(=O)c3c(Cl)cncc3Cl)cc2)C(=O)O)CC1 [Example 90, (S)-3-(4-{[1-(3,5-Dichloropyridin-4-yl)methanoyl]amino}phenyl)-2-{3-[2-(4-methylpiperazine-1-sulfonyl)phenyl]ureido}propionic acid] | < 0.1 µM
O=C(Nc1ccccc1S(=O)(=O)NCc1cccs1)N[C@@H](Cc1ccc(NC(=O)c2c(Cl)cccc2Cl)cc1)C(=O)O [Example 21, (S)-3-[4-(2,6-Dichlorobenzoylamino)phenyl]-2-(3-{2-[(thiophen-2-ylmethyl)sulfamoyl]phenyl}ureido)propionic acid] | < 0.1 µM
CN(C(=O)N[C@@H](Cc1ccc(NC(=O)c2c(Cl)cccc2Cl)cc1)C(=O)O)c1ccccc1S(=O)(=O)c1ccccc1 [Example 23, (S)-2-[3-(2-Benzenesulfonylphenyl)-3-methylureido]-3-[4-(2,6-dichlorobenzoylamino)phenyl]propionic acid] | < 0.1 µM
CCCN(C(=O)N[C@@H](Cc1ccc(NC(=O)c2c(Cl)cncc2Cl)cc1)C(=O)O)c1ccccc1C(=O)N(C)C1CCCCC1 [Example 82] | < 0.1 µM
O=C(Nc1ccccc1S(=O)(=O)Nc1ccccc1)N[C@@H](Cc1ccc(NC(=O)c2c(Cl)cccc2Cl)cc1)C(=O)O [Example 22, (S)-3-[4-(2,6-Dichlorobenzoylamino)phenyl]-2-[3-(2-phenylsulfamoylphenyl)ureido]propionic acid] | < 0.1 µM
CN(C(=O)N[C@@H](Cc1ccc(NC(=O)c2c(Cl)cncc2Cl)cc1)C(=O)O)c1ccccc1Cc1ccccc1 [Example 79, (S)-2-[3-(2-Benzylphenyl)-3-methylureido]-3-(4-{[1-(3,5-dichloropyridin-4-yl)methandyl]amino}-phenyl)propionic acid] | < 0.1 µM
O=C(Nc1ccccc1S(=O)(=O)c1ccccc1)N[C@@H](Cc1ccc(NC(=O)c2c(Cl)cncc2Cl)cc1)C(=O)O [Example 70, (S)-2-[3-(2-Benzenesulfonylphenyl)ureido]-3-{4-[(3,5-dichloropyridine-4-carbonyl)amino]phenyl}propionic acid] | < 0.1 µM
CCCCCN(C(=O)N[C@@H](Cc1ccc(NC(=O)c2c(Cl)cncc2Cl)cc1)C(=O)O)c1ccccc1C(=O)N(C)C1CCCCC1 [Example 84] | < 0.1 µM
CN(C1CCCCC1)S(=O)(=O)c1ccccc1NC(=O)N[C@@H](Cc1ccc(NC(=O)c2c(Cl)cncc2Cl)cc1)C(=O)O [Example 66] | < 0.1 µM
CN(C(=O)N[C@@H](Cc1ccc(NC(=O)c2c(Cl)cncc2Cl)cc1)C(=O)O)c1ccccc1C(=O)N(C)C1CCCCC1 [Example 81] | < 0.1 µM
CCCCN(Cc1cccs1)S(=O)(=O)c1ccccc1NC(=O)N[C@@H](Cc1ccc(NC(=O)c2c(Cl)cccc2Cl)cc1)C(=O)O [Example 20, (S)-2-{3-[2-(Butylthiophen-2-ylmethylsulfamoyl)phenyl]ureido}-3-[4-(2,6-dichlorobenzoylamino)phenyl]propionic acid] | < 0.1 µM

The next lines start with the values.

IC50 | SMILES
< 0.1 µM | O=C(Nc1ccccc1S(=O)(=O)c1ccccc1)N[C@@H](Cc1ccc(Oc2nccc3cnccc23)cc1)C(=O)O [Example 134, (S)-2-[3-(2-Benzenesulfonylphenyl)ureido]-3-[4-([2,6]naphthyridin-1-yloxy)phenyl]propionic acid]
< 0.1 µM | O=C(Nc1ccccc1S(=O)(=O)c1ccccc1)N[C@@H](Cc1ccc(OC(=O)c2c(Cl)cncc2Cl)cc1)C(=O)O [Example 116, 3,5-Dichloroisonicotinic acid 4-{(S)-2-[3-(2-benzenesulfonylphenyl)ureido]-2-carboxyethyl}phenyl ester]
< 0.1 µM | CC(C)(C)S(=O)(=O)c1ccccc1NC(=O)N[C@@H](Cc1ccc(NC(=O)c2c(Cl)cncc2Cl)cc1)C(=O)O [Example 94, (S)-3-(4-{[1-(3,5-Dichloropyridin-4-yl)methanoyl]amino}phenyl)-2-{3-[2-(2-methylpropane-2-sulfonyl)phenyl]ureido}propionic acid]
< 0.1 µM | COc1cncc(OC)c1C(=O)Nc1ccc(C[C@H](NC(=O)Nc2ccccc2S(=O)(=O)c2ccccc2)C(=O)O)cc1 [Example 105, (S)-2-[3-(2-Benzenesulfonylphenyl)ureido]-3-(4-{[1-(3,5-dimethoxypyridin-4-yl)-methanoyl]amino}phenyl)propionic acid]
< 0.1 µM | Cc1ccc(C(=O)Nc2ccc(C[C@H](NC(=O)Nc3ccccc3S(=O)(=O)c3ccccc3)C(=O)O)cc2)c(Cl)n1 [Example 103, (S)-2-[3-(2-Benzenesulfonylphenyl)ureido]-3-(4-{[1-(2-chloro-6-methylpyridin-3-yl)methanoyl]amino}phenyl)propionic acid]
< 0.1 µM | O=C(Nc1ccccc1S(=O)(=O)N1CCCCC1)N[C@@H](Cc1ccc(Oc2nccc3ccncc23)cc1)C(=O)O [Example 140, (S)-3-[4-([2,7]Naphthyridin-1-yloxy)phenyl]-2-{3-[2-(piperidine-1-sulfonyl)phenyl]ureido}propionic acid]
< 0.1 µM | Cc1csc2nc(Sc3ccccc3NC(=O)N[C@@H](Cc3ccc(NC(=O)c4c(Cl)cncc4Cl)cc3)C(=O)O)cnc12 [Example 96, (S)-3-(4-{[1-(3,5-Dichloropyridin-4-yl)methanoyl]amino}phenyl)-2-(3-[2-(7-methylthieno[2,3-b]pyrazin-3-ylsulfanyl)phenyl]ureido}propionic acid]
< 0.1 µM | CN(C(=S)N[C@@H](Cc1ccc(NC(=O)c2c(Cl)cncc2Cl)cc1)C(=O)O)c1ccccc1Cc1ccccc1 [Example 144, (S)-2-[3-(2-Benzylphenyl)-3-methylthioureido]-3-(4-{[1-(3,5-dichloropyridin-4-yl)methanoyl]amino}phenyl)propionic acid]

The compounds below were run against T2, α4β7 integrin (Homo sapiens, UniProt P13612+P26010) (assay: RPMI 8866 cell adhesion to mouse MAdCAM-1 (α4β7 binding assay)). Conditions: RPMI 8866 cells, immobilized mouse MAdCAM-1; read-out: IC50 values in the α4β7.
T2 construct: endogenous in cells; host or cells: RPMI 8866 cells
T2 sequence (P13612 34-1032): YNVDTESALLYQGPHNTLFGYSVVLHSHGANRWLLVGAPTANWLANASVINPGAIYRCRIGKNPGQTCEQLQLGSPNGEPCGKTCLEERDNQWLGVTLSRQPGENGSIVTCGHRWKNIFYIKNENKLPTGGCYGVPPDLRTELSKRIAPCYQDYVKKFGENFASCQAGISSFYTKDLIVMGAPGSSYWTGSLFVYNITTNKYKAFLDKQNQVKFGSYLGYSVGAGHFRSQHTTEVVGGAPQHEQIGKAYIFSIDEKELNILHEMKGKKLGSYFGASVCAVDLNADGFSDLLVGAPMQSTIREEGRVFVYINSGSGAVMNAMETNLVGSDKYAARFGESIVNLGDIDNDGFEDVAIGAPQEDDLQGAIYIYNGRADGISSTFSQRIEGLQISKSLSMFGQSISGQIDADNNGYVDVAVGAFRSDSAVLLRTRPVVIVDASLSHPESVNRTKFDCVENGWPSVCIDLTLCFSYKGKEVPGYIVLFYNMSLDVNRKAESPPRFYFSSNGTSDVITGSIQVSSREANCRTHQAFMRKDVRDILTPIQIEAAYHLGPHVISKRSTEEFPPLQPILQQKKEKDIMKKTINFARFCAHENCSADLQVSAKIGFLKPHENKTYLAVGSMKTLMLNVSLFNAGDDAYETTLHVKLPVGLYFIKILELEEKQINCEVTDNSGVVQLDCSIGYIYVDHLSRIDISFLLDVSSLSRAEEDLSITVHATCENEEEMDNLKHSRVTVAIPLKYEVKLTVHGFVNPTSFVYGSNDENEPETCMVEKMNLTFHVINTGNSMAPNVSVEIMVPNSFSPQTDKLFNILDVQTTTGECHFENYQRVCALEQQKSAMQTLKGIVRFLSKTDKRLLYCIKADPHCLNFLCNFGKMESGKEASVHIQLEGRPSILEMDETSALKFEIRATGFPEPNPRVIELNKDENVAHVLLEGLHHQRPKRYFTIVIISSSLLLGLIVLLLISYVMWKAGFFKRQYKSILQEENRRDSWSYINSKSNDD
T2 sequence (P26010 20-798): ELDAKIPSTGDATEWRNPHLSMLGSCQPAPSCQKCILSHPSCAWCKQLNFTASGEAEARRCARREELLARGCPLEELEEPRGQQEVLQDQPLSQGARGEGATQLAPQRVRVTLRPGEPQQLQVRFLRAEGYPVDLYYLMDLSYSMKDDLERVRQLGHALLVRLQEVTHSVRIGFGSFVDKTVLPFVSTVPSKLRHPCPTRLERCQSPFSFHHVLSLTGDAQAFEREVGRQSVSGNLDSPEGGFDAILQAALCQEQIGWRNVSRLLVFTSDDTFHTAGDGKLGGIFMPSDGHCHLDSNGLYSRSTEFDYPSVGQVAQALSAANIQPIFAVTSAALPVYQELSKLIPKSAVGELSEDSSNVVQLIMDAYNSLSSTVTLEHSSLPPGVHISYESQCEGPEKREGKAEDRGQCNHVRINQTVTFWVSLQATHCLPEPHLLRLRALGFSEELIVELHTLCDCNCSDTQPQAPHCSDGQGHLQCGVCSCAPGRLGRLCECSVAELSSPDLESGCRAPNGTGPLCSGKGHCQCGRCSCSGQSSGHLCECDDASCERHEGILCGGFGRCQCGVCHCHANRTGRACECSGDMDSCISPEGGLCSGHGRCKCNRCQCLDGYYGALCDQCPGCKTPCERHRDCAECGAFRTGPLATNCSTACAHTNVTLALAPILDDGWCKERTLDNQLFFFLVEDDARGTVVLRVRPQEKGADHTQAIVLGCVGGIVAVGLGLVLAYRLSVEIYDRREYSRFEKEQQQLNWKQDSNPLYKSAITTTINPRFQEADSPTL
Assay type: cell-based
Protocol: RPMI 8866 Cell Adhesion to Mouse MAdCAM-1 (α4β7 Binding Assay)
Recombinant mouse MAdCAM-1 was coated on a 96-well plate overnight. Unbound MAdCAM-1 was washed away and plates were blocked with 0,5% BSA. Cells were labelled with BCECF-AM and added to ligand-coated wells. Test compounds were added to the wells followed by RPMI 8866 and the adhesion assay was performed for 45 min at room temperature. Following incubation, the wells were emptied and washed. Inhibition of binding was measured by the quantity of fluorescence bound to the plate for each of the various concentrations of test compound, as well as for controls containing no test compound, with a Cytofluor 2300 fluorescence measurement system.

SMILES | IC50
CN1CCN(S(=O)(=O)c2ccccc2NC(=O)N[C@@H](Cc2ccc(NC(=O)c3c(Cl)cncc3Cl)cc2)C(=O)O)CC1 [Example 90, (S)-3-(4-{[1-(3,5-Dichloropyridin-4-yl)methanoyl]amino}phenyl)-2-{3-[2-(4-methylpiperazine-1-sulfonyl)phenyl]ureido}propionic acid] | < 0.1 µM
CCCN(C(=O)N[C@@H](Cc1ccc(NC(=O)c2c(Cl)cncc2Cl)cc1)C(=O)O)c1ccccc1C(=O)N(C)C1CCCCC1 [Example 82] | < 0.1 µM

Same assay, conditions: RPMI 8866 cells, immobilized mouse MAdCAM-1; read-out: IC50 values in the α4β7 assays

SMILES | IC50
CN1CCN(C(=O)Oc2ccc(C[C@H](NC(=O)Nc3ccccc3S(=O)(=O)c3ccccc3)C(=O)O)cc2)CC1 [Example 114, 4-Methylpiperazine-1-carboxylic acid 4-{(S)-2-[3-(2-benzenesulfonylphenyl)ureido]-2-carboxyethyl}phenyl ester] | 1 to 10 µM
CN(C1CCCCC1)S(=O)(=O)c1ccccc1NC(=O)N[C@@H](Cc1ccc(NC(=O)c2c(Cl)cccc2Cl)cc1)C(=O)O [Example 40] | 1 to 10 µM
CN(C(=O)N[C@@H](Cc1ccc(NC(=O)c2c(Cl)cccc2Cl)cc1)C(=O)O)c1ccccc1S(=O)(=O)c1ccccc1 [Example 23, (S)-2-[3-(2-Benzenesulfonylphenyl)-3-methylureido]-3-[4-(2,6-dichlorobenzoylamino)phenyl]propionic acid] | 1 to 10 µM
